Here are results for 1 compound from ChEMBL document CHEMBL4422610, “HDAC as onco target: Reviewing the synthetic approaches with SAR study of their inhibitors” (Eur J Med Chem, 2018).

pIC50: −log10 of the molar value.

Test [1] has as its target Histone deacetylase 1 (Homo sapiens, UniProt Q13547). The test can be described thus: Inhibition of human HDAC1 using fluorogenic HDAC substrate.
For test [2], the target named is Histone deacetylase 2 (Homo sapiens, UniProt Q92769). The test can be described thus: Inhibition of human HDAC2 using fluorogenic HDAC substrate.
Chain of Histone deacetylase 2 (Q92769 whole entry): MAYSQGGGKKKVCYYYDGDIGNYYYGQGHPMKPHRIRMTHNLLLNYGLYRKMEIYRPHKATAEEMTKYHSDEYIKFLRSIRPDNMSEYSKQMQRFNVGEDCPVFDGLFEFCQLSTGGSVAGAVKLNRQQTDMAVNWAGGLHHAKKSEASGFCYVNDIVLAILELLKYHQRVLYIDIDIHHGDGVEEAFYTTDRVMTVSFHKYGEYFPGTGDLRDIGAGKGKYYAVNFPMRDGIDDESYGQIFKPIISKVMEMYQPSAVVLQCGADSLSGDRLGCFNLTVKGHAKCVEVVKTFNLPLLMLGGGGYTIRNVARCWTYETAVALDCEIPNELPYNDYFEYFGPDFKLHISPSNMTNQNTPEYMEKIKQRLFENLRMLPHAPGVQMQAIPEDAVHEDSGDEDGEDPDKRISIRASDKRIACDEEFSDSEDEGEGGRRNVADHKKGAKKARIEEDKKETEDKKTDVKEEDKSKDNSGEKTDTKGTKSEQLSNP
The target of test [3] is Histone deacetylase 5 (Homo sapiens, UniProt Q9UQL6). The test can be described thus: Inhibition of human HDAC5 using fluorogenic HDAC substrate.
Chain of Histone deacetylase 5 (Q9UQL6 whole entry): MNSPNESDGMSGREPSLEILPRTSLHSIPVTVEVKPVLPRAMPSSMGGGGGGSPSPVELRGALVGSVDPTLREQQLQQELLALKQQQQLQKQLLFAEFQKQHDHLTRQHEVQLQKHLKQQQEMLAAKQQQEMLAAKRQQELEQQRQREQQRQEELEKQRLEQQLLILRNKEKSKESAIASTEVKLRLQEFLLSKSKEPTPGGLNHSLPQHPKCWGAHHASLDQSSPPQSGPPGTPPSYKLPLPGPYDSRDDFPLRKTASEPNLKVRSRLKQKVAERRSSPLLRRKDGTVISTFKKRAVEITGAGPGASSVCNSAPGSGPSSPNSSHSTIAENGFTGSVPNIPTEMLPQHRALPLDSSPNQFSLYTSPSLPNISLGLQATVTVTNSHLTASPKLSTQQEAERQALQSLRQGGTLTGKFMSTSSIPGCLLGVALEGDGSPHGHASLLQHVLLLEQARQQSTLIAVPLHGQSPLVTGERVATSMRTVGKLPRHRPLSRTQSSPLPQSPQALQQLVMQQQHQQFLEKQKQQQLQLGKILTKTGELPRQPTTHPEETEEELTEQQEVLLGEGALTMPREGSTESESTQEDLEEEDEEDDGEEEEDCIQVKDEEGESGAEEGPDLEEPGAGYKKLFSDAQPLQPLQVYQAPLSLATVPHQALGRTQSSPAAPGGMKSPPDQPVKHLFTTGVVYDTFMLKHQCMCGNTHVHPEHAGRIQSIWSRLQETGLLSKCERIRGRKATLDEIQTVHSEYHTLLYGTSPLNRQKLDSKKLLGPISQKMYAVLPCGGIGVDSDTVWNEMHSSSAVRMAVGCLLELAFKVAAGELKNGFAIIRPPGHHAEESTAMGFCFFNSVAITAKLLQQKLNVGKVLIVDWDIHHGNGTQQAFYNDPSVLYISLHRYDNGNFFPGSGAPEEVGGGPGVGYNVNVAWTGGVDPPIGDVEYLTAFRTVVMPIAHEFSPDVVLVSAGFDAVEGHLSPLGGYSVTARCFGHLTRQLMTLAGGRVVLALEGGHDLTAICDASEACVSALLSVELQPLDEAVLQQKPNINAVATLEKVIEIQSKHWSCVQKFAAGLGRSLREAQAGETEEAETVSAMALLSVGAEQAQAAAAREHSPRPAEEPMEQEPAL
In test [4] the target is T1, Protein deacetylase HDAC6 (Homo sapiens, UniProt Q9UBN7).
T1 sequence (Q9UBN7 whole entry): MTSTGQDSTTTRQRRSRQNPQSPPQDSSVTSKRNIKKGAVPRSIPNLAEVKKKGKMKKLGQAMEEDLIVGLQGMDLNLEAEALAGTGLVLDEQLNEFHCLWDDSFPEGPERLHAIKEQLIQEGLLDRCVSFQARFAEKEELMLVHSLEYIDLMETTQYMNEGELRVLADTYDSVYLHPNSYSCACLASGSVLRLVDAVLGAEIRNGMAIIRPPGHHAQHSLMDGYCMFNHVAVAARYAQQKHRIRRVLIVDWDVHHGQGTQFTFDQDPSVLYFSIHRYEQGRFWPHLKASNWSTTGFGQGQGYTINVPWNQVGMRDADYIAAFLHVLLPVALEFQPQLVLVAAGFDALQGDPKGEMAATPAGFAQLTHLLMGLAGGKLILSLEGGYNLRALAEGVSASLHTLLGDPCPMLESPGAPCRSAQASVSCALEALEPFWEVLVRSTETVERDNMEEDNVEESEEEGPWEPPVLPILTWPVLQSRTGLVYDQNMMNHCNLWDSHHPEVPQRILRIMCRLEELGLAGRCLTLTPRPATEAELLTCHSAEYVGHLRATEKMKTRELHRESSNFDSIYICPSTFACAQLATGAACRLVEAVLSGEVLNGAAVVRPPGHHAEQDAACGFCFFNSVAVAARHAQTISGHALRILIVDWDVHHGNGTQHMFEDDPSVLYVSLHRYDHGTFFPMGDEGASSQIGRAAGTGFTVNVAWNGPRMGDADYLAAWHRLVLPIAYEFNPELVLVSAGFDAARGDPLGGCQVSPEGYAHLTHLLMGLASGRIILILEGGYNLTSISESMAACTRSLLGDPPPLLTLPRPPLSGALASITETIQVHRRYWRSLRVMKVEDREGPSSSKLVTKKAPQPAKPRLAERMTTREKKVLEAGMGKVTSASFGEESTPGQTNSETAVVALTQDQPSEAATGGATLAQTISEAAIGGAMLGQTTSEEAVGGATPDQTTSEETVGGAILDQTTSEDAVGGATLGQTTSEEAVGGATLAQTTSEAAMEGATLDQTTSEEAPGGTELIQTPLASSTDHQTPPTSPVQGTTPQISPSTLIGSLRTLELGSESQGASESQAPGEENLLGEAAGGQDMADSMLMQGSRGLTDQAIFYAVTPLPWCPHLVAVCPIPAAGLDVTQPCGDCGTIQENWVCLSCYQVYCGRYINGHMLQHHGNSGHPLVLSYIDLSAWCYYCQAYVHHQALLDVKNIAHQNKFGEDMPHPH
The test is described as follows: Inhibition of human HDAC6 using fluorogenic HDAC substrate.

Test [5] deals with T2, Histone deacetylase 7 (Homo sapiens, UniProt Q8WUI4).
T2 sequence (Q8WUI4 whole entry): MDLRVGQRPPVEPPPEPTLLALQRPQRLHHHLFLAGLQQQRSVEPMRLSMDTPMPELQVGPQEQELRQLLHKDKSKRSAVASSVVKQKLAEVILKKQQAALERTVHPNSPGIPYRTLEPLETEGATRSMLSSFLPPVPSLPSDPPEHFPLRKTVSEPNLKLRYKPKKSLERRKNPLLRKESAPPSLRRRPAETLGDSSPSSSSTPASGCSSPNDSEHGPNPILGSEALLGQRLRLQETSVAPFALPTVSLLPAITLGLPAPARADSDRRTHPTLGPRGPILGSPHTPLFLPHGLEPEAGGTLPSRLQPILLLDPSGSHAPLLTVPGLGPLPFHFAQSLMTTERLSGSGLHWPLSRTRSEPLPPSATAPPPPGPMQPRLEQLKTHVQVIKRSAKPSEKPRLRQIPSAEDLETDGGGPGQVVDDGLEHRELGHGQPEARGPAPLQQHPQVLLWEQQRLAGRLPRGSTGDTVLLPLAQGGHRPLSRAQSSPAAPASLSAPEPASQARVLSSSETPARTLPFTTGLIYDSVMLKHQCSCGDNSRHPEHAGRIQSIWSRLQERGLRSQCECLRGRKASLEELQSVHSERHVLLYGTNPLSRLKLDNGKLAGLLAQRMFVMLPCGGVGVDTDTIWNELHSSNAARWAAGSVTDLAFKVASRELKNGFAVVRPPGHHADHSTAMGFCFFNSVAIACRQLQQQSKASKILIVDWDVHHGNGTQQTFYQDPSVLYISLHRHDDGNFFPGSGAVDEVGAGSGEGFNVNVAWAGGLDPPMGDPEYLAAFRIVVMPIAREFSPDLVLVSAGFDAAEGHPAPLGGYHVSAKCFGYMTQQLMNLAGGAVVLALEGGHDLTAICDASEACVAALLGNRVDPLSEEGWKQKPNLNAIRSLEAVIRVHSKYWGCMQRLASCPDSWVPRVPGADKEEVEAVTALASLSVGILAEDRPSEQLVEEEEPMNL
The test can be described thus: Inhibition of human HDAC7 using fluorogenic HDAC substrate.

The target in test [6] is Histone deacetylase 9 (Homo sapiens, UniProt Q9UKV0). The test is described as follows: Inhibition of human HDAC9 using fluorogenic HDAC substrate.
Chain of Histone deacetylase 9 (Q9UKV0 whole entry): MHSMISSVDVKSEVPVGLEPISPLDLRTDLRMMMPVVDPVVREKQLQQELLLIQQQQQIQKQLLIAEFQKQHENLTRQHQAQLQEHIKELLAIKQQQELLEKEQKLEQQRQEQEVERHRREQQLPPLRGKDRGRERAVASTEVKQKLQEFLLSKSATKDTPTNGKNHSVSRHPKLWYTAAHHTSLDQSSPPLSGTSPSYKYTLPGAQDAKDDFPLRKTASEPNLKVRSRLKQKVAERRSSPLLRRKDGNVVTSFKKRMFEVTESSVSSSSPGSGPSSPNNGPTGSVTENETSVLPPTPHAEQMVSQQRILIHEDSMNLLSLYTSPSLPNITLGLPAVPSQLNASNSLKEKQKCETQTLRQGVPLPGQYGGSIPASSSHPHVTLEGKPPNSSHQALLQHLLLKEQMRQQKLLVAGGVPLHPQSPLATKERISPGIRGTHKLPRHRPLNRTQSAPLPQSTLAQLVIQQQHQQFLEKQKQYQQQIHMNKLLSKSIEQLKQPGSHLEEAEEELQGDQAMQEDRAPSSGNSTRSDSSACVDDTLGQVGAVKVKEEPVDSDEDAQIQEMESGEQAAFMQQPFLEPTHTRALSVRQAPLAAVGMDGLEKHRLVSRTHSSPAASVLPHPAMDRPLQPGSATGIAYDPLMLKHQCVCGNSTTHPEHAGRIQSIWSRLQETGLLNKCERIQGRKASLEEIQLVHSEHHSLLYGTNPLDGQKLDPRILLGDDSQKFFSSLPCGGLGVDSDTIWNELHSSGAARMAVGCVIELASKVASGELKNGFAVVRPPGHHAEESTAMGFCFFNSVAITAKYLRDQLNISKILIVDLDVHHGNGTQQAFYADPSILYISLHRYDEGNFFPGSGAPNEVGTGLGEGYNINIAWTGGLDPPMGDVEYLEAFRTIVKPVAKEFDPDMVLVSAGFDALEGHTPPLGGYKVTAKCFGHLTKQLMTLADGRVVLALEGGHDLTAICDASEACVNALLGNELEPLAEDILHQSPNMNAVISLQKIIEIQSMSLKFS
Test [7] has as its target T3, Histone deacetylase 11 (Homo sapiens, UniProt Q96DB2).
T3 sequence (Q96DB2 whole entry): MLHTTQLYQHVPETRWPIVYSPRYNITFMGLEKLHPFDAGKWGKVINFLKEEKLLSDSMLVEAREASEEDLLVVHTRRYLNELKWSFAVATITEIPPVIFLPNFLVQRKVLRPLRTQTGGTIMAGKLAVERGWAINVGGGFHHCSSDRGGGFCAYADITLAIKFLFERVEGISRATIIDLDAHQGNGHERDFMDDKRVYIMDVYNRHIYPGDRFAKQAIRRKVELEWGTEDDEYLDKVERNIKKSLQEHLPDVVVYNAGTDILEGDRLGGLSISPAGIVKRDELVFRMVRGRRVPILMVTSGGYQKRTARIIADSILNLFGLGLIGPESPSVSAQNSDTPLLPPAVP
The test is described as follows: Inhibition of human HDAC11 using fluorogenic HDAC substrate.

Chain of Histone deacetylase 1 (Q13547 whole entry): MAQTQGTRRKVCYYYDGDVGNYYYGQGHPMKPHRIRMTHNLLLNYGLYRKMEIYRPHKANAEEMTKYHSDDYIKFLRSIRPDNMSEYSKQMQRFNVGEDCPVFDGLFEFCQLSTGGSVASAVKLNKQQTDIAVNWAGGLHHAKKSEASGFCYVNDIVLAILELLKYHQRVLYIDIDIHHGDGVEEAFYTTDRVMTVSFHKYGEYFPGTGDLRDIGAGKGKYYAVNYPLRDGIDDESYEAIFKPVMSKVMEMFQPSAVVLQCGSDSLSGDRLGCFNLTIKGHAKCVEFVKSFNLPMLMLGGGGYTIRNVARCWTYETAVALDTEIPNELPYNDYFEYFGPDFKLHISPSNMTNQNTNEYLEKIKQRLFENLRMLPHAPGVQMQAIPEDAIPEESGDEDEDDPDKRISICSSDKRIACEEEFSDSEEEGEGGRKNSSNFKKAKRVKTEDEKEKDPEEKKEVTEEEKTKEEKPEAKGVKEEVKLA

What is called pIC50 is −log10 of the IC50, conventionally taken in molar units. A higher pIC50 goes with a small IC50. On to `O=C(NO)c1ccc(CN2c3ccccc3CC[C@@H]3CCCC[C@H]32)cc1`, for which the pIC50 in test [1] is 5.31; in test [2] it was 4.59; in test [3], 4.92; in test [4] it was 8.22; in test [5], less than 4.52; in test [6], 5.05. Besides, the negative-log IC50 (pIC50) in test [7] is 6.27.
